Patent publication US20150057246A1, “SILYL-CONTAINING HETEROCYCLIC COMPOUNDS AND METHODS OF USE THEREOF FOR THE TREATMENT OF VIRAL DISEASES” (priority 2012, published 2015)
Where two headings read alike, the source gives them in different places.

What was measured:
HCV 1a replicon = assay: Cell-based HCV replicon assay (TaqMan), genotype 1a replicon; conditions: HCV genotype 1a replicon cells, replicon RNA by real time PCR, day 3, EC90 = concentration for ΔCT=3.2 over baseline
In short: (§1)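 Replicon cells seeded at 5000 cells/well with compound as 10 serial 2-fold dilutions (top 250 μM to 1 μM), 0.5% DMSO, 5% FBS, 3 days. NS5B replicon RNA quantified by multiplex TaqMan RT-PCR against GAPDH. EC50 = concentration giving ΔCT=1 over baseline; EC90 = ΔCT=3.2, from sigmoid fit.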

HCV 1b replicon = assay: Cell-based HCV replicon assay (TaqMan), genotype 1b replicon; conditions: HCV genotype 1b replicon cells, replicon RNA by real time PCR, day 3, EC90 = concentration for ΔCT=3.2 over baseline
Description: Measurement of inhibition by compounds of the present invention was performed using the HCV replicon system. Several different replicons encoding different HCV genotypes or mutations were used. In addition, potency measurements were made using different formats of the replicon assay, including different ways of measurements and different plating formats. See Jan M. Vrolijk et al., A replicons-based bioassay for the measurement of interferons in patients with chronic hepatitis C, 110 J. VIROLOGICAL METHODS 201 (2003); Steven S. Carroll et al., Inhibition of Hepatitis C Virus RNA Replication by 2′-Modified Nucleoside Analogs, 278(14) J. BIOLOGICAL CHEMISTRY 11979 (2003). However, the underlying principles are common to all of these determinations, and are outlined below.
TaqMan®-Based Assay Protocol:
Compounds of the present invention were assayed for cell-based anti-HCV activity using the following protocol. Replicon cells were seeded at 5000 cells/well in 96-well collagen I-coated Nunc plates in the presence of the test compound. Various concentrations of test compound, typically in 10 serial 2-fold dilutions, were added to the assay mixture, with the starting concentration ranging from 250 μM to 1 μM. The final concentration of DMSO was 0.5%, fetal bovine serum was 5%, in the assay media. Cells were harvested on day 3 by the addition of 1× cell lysis buffer (Ambion cat #8721). The replicon RNA level was measured using real time PCR (TaqMan® assay). The amplicon was located in 5B. The PCR primers were: 5B.2F, ATGGACAGGCGCCCTGA (SEQ. ID NO. 1); 5B.2R, […] (SEQ. ID NO. 2); the probe sequence was FAM-labeled CACGCCATGCGCTGCGG (SEQ. ID NO. 3). GAPDH RNA was used as endogenous control and was amplified in the same reaction as NS5B (multiplex PCR) using primers and VIC-labeled probe recommended by the manufacturer (PE Applied Biosystem). The real-time […] reactions were run on ABI PRISM 7900HT Sequence Detection System using the following program: 48° C. for 30 minutes, 95° C. for 10 minutes, 40 cycles of 95° C. for 15 sec, 60° C. for 1 minute. The ΔCT values (CT5B-CTGAPDH) were plotted against the concentration of test compound and fitted to the sigmoid dose-response model using XLfit4 (MDL). EC50 was defined as the concentration of inhibitor necessary to achieve ΔCT=1 over the projected baseline; EC90 the concentration necessary to achieve ΔCT=3.2 over the baseline. Alternatively, to quantitate the absolute amount of replicon RNA, a standard curve was established by including serially diluted T7 transcripts of replicon RNA in the Taqman assay. All TaqMan® reagents were from PE Applied Biosystems. Such an assay procedure was described in detail in e.g. Malcolm et al., Antimicrobial Agents and Chemotherapy 50: 1013-1020 (2006).
HCV replicon EC50 assay data for various replicons and mutants was calculated for selected compounds of the present invention using this method and is provided in the tables above herein.

HCV 1a Y93H replicon = assay: Cell-based HCV replicon assay (TaqMan), 1a Y93H mutant replicon; conditions: EC90 = concentration for ΔCT=3.2 over baseline
In short: as §1

HCV 2b replicon = assay: Cell-based HCV replicon assay (TaqMan), genotype 2b replicon; conditions: Hepatitis C virus, 72 h, read-out: 2b EC90, HCV genotype 2b replicon cells, replicon RNA by real time PCR, day 3; EC90 = concentration for ΔCT=3.2 over baseline
In short: as §1

[1] = Hepatitis C virus, 72 h, read-out: 1a Y93H EC90, HCV 1a Y93H mutant replicon cells, replicon RNA by real time PCR, day 3

Compound | EC90 (HCV 1a replicon; Hepatitis C virus, 72 h) [nM] | EC90 (HCV 1b replicon; Hepatitis C virus, 72 h) [nM] | EC90 (HCV 1a Y93H replicon; [1]) [nM] | EC90 (HCV 2b replicon) [nM] | EC90 (HCV 1a replicon) [nM] | EC90 (HCV 1b replicon) [nM] | EC90 (HCV 1a Y93H replicon; read-out: 1a Y93H EC90, HCV 1a Y93H mutant replicon cells, replicon RNA by real time PCR, day 3) [nM]
COC(=O)N[C@@H](CC(C)(C)C)C(=O)N1C[Si](C)(C)C[C@H]1c1nc2ccc3cc(-c4ccc(-c5cnc([C@@H]6CCCN6C(=O)[C@@H](NC(=O)OC)C(C)C)[nH]5)cc4)ccc3c2[nH]1 [Compound 72] | 0.18 | 0.02 | 130 | 114 |  |  | 
COC(=O)N[C@H](C(=O)N1C[Si](C)(C)C[C@@H]1c1nc2ccc3cc(-c4ccc5cc(-c6cnc([C@H]7CCCN7C(=O)[C@H](NC(=O)OC)C(C)C)[nH]6)ccc5c4)ccc3c2[nH]1)C1CCOCC1 [Compound 118] | 0.023 | > 1 | > 100 | > 100 |  |  | 
COC(=O)N[C@H](C(=O)N1CCC[C@H]1c1ncc(-c2ccc(-c3ccc4c(ccc5nc([C@@H]6C[Si](C)(C)CN6C(=O)[C@@H](NC(=O)OC)C6CCCCC6)[nH]c54)c3)cc2)[nH]1)C(C)C [Compound 67] | 0.5 | 0.02 | > 1000 | 129 |  |  | 
COC(=O)N[C@H](C(=O)N1CCC[C@H]1c1ncc(-c2ccc(-c3ccc4c(ccc5nc([C@@H]6C[Si](C)(C)CN6C(=O)[C@H](NC(=O)OC)C(C)(C)OC)[nH]c54)c3)cc2)[nH]1)C(C)C [Compound 74] | 1.3 | 0.03 | > 1000 | 380 |  |  | 
COC(=O)N[C@H](C(=O)N1CCC[C@H]1c1ncc(-c2ccc3cc(-c4ccc5c(ccc6nc([C@@H]7C[Si](C)(C)CN7C(=O)[C@@H](NC(=O)OC)C(C)C)[nH]c65)c4)ccc3c2)[nH]1)C(C)C [Compound 112] | 0.046 | > 1 | > 100 | > 100 |  |  | 
COC(=O)N[C@@H](CC1CC1)C(=O)N1C[Si](C)(C)C[C@H]1c1nc2ccc3cc(-c4ccc(-c5cnc([C@@H]6CCCN6C(=O)[C@@H](NC(=O)OC)C(C)C)[nH]5)cc4)ccc3c2[nH]1 [Compound 77] | 0.56 | 0.03 | > 1000 | 221 |  |  | 
COC(=O)N[C@H](C(=O)N1C[Si](C)(C)C[C@H]1c1nc(Cl)c(-c2ccc(-c3ccc4c(ccc5nc([C@@H]6CCCN6C(=O)[C@@H](NC(=O)OC)C(C)C)[nH]c54)c3)cc2)[nH]1)C(C)C [Compound 96] | 0.24 | 0.69 | 368 | 263 |  |  | 
COC(=O)N[C@H](C(=O)N1CCC[C@H]1c1ncc(-c2ccc3cc(-c4ccc5c(ccc6nc([C@@H]7C[Si](C)(C)CN7C(=O)[C@@H](NC(=O)OC)C7CC7)[nH]c65)c4)ccc3c2)[nH]1)C1CC1 [Compound 114] | 0.06 | > 1 | > 100 | > 100 |  |  | 
COC(=O)N[C@H](C(=O)N1C[Si](C)(C)C[C@H]1c1nc2ccc3cc(-c4ccc(-c5cnc([C@@H]6C[C@H]7C[C@H]7N6C(=O)[C@@H](NC(=O)OC)C(C)C)[nH]5)cc4)ccc3c2[nH]1)C(C)C [Compound 105] |  |  |  | 301 | 0.26 | 0.02 | 605
COC(=O)N[C@H](C(=O)N1CCC[C@H]1c1ncc(-c2ccc(-c3ccc4c(ccc5nc([C@@H]6C[Si](C)(C)CN6C(=O)[C@@H](NC(=O)OC)[C@H](O)C(C)C)[nH]c54)c3)cc2)[nH]1)C(C)C [Compound 68] | 0.21 | 0.02 | > 1000 | 143 |  |  | 
COC(=O)N[C@H](C(=O)N1CCC[C@H]1c1ncc(-c2ccc(-c3ccc4c(ccc5nc([C@@H]6C[Si](C)(C)CN6C(=O)C6(NC(=O)OC)CCC6)[nH]c54)c3)cc2)[nH]1)C(C)C [Compound 71] | 10 | 0.03 | 288 | 205 |  |  | 
COC(=O)N[C@@H](CSC)C(=O)N1C[Si](C)(C)C[C@H]1c1nc2ccc3cc(-c4ccc(-c5cnc([C@@H]6CCCN6C(=O)[C@@H](NC(=O)OC)C(C)C)[nH]5)cc4)ccc3c2[nH]1 [Compound 76] | 0.25 | 0.03 | 984 | 108 |  |  | 
COC(=O)N[C@H](C(=O)N1CCC[C@H]1c1ncc(-c2ccc3cc(-c4ccc5c(ccc6nc([C@@H]7C[Si](C)(C)CN7C(=O)[C@@H](NC(=O)OC)C7CCOCC7)[nH]c65)c4)ccc3c2)[nH]1)C1CCOCC1 [Compound 113] | 0.026 | > 1 |  | 97 |  |  | 
COC(=O)N[C@H](C(=O)N1C[Si](C)(C)C[C@H]1c1ncc(-c2ccc(-c3ccc4c(ccc5nc([C@@H]6CC(F)(F)CN6C(=O)[C@@H](NC(=O)OC)C(C)C)[nH]c54)c3)cc2)[nH]1)C(C)C [Compound 8] | 0.042 | 0.02 | 65 |  |  |  | 
COC(=O)N[C@@H](CN(C)C)C(=O)N1C[Si](C)(C)C[C@H]1c1nc2ccc3cc(-c4ccc(-c5cnc([C@@H]6CCCN6C(=O)[C@@H](NC(=O)OC)C(C)C)[nH]5)cc4)ccc3c2[nH]1 [Compound 73] | 0.19 | 0.05 | > 1000 | 110 |  |  | 
COC(=O)N[C@H](C(=O)N1CCC[C@H]1c1ncc(-c2ccc(-c3ccc4c(ccc5nc([C@@H]6C[Si](C)(C)CN6C(=O)[C@@H](NC(=O)OC)C6CCOCC6)[nH]c54)c3)cc2)[nH]1)C1CCOCC1 [Compound 18] | 0.023 | 0.014 | > 100 | 2.8 |  |  | 
COC(=O)N[C@H](C(=O)N1C[Si](C)(C)C[C@H]1c1nc2ccc3cc(-c4ccc(-c5cnc([C@@H]6[C@H]7CC[C@H](C7)N6C(=O)[C@@H](NC(=O)OC)C(C)C)[nH]5)cc4)ccc3c2[nH]1)C(C)C [Compound 6] | 0.17 | 0.02 | 404 |  |  |  | 
COC(=O)N[C@H](C(=O)N1CC(F)(F)C[C@H]1c1ncc(-c2ccc(-c3ccc4c(ccc5nc([C@@H]6C[Si](C)(C)CN6C(=O)[C@@H](NC(=O)OC)C(C)C)[nH]c54)c3)cc2)[nH]1)C(C)C [Compound 7] | 0.047 | 0.005 | 172 |  |  |  | 
COC(=O)N[C@H](C(=O)N1C[Si](C)(C)C[C@H]1c1ncc(-c2ccc(-c3ccc4c(ccc5[nH]c([C@@H]6[C@H]7CC[C@H](C7)N6C(=O)[C@@H](NC(=O)OC)C(C)C)nc54)c3)cc2)[nH]1)C(C)C [Compound 4] | 0.097 | 0.005 | 333 |  |  |  | 
